Among the data in patent US8163718B2, “Nucleoside analogues containing phosphonate or phosphonamide groups” (Gilead Sciences, Inc., priority 2008, dated 2012) are GI50 values, retold here.

What all share (assay): Cytostatic cell culture assay (GI50), SRB
Holding throughout (assay type): cell-based

In one test the test system is A549. The following applies: Homo sapiens, A549, 120 h; 5 days incubation. An outline of the steps:
(§1)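 SRB cytostatic assay: cells plated overnight, then exposed to 5-fold serial compound dilutions for 5 days at 37 °C, TCA-fixed, SRB-stained, OD read at 500 nm. Growth relative to day-zero and untreated plates; GI50 from sigmoidal dose-response fit.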

A further test has as its system Du-145. The following applies: Homo sapiens, DU-145, 120 h; 5 days incubation. An outline of the steps: as §1
For the next test, the system named is PC3. Conditions: Homo sapiens, PC-3, 120 h; 5 days incubation. An outline of the steps: as §1
The test system of a further test is HCT-15. The following applies: Homo sapiens, HCT-15, 120 h; 5 days incubation. An outline of the steps:
as §1

For the next test, the system named is BT-549. Conditions: Homo sapiens, BT-549, 120 h; 5 days incubation. An outline of the steps:
as §1

Another test deals with HCT-116. The following applies: Homo sapiens, HCT-116, 120 h; 5 days incubation. An outline of the steps:
as §1

The subject of another test is NCI-H23. Conditions: Homo sapiens, NCI-H23, 120 h; 5 days incubation. An outline of the steps:
as §1

For another test, the system named is Hs-578. Conditions: Hs578, 120 h; 5 days incubation. An outline of the steps:
as §1

A word on the GI50: it is the concentration at which growth is held to half of that of the control. Higher therefore signals lower sensitivity of the cells. Turning to `CCOC(=O)[C@H](C)NP(=O)(COCCn1cnc2c(OCCOC)nc(N)nc21)N[C@@H](C)C(=O)OCC` [Example 48], the GI50 in the test on A549 is 4090 nM; with Du-145 it was 108 nM; with PC3, 372 nM; in the test with HCT-15 it was above 10000 nM; with BT-549 it was 1710 nM; in the test with HCT-116 it was 2520 nM. Besides, the GI50 was 61 nM in the test on NCI-H23 and 976 nM in the test with Hs-578.
Regarding `CCCCOC(=O)[C@H](C)NP(=O)(COCCn1cnc2c(OCCOC)nc(N)nc21)N[C@@H](C)C(=O)OCCCC` [Example 49], the GI50 in the test on A549 was 368 nM; in the test on Du-145, 1 nM; in the test on PC3, 3 nM; in the test on HCT-15, 5100 nM; in the test with BT-549, 50 nM; in the test on HCT-116, 109 nM. The 50% growth inhibitory concentration (GI50) in the test on NCI-H23 was found to be 2 nM; with Hs-578 it was 25 nM.
For the compound `CCOC(=O)[C@@H]1CCCN1P(=O)(COCCn1cnc2c(NC3CC3)nc(N)nc21)N1CCC[C@H]1C(=O)OCC` [Example 50], the GI50 was 3700 nM in the test on A549; 250 nM in the test with Du-145; 608 nM with PC3; above 10000 nM in the test on HCT-15; 1620 nM with BT-549; 3070 nM with HCT-116. For the same compound, the concentration for 50% growth inhibition (GI50) in the test on NCI-H23 is 118 nM; in the test with Hs-578 it was 308 nM.
With `Nc1nc(NC2CC2)c2ncn(CCOCP(=O)(N3CCC[C@H]3C(=O)OCc3ccccc3)N3CCC[C@H]3C(=O)OCc3ccccc3)c2n1` [Example 51], the GI50 in the test with A549 was determined as 1670 nM; in the test on Du-145 it was 256 nM; in the test with PC3, 214 nM; with HCT-15 it was 8500 nM; in the test on BT-549 it was 527 nM; with HCT-116, 850 nM. In addition, the GI50 amounted to 263 nM in the test with NCI-H23 and 96 nM with Hs-578.
Turning to `CCCOc1nc(N)nc2c1ncn2CCOCP(=O)(N[C@@H](C)C(=O)OC(C)C)Oc1ccccc1` (some centres unmarked) [Example 54], the GI50 in the test with A549 worked out at 317 nM; with Du-145, 65 nM; in the test on PC3 it was 472 nM; in the test on HCT-15 it was 2770 nM; in the test with BT-549, 1770 nM; with HCT-116 it was 840 nM. Besides, the GI50 came out at 67 nM with NCI-H23 and 894 nM with Hs-578.
Turning to `CCCOc1nc(N)nc2c1ncn2CCOCP(=O)(N[C@@H](Cc1ccccc1)C(=O)OCC)Oc1ccccc1` (some centres unmarked) [Example 55], the GI50 came to 80 nM in the test with A549; 4 nM in the test on Du-145; 59 nM in the test with PC3; 815 nM in the test with HCT-15; 756 nM with BT-549; 47 nM with HCT-116. The GI50 turned out to be 9 nM in the test on NCI-H23 and 149 nM in the test on Hs-578.
Consider `CCCOc1nc(N)nc2c1ncn2CCOCP(=O)(Oc1ccccc1)N1CCC[C@H]1C(=O)OCc1ccccc1` (some centres unmarked) [Example 56], for which the GI50 in the test with A549 is 2130 nM; in the test with Du-145, 722 nM; in the test on PC3, 1250 nM; with HCT-15, 3860 nM; in the test on BT-549, 1090 nM; with HCT-116 it was 1930 nM. Also, the GI50 was found to be 389 nM in the test on NCI-H23 and 1490 nM in the test on Hs-578.
For the compound `CCCOc1nc(N)nc2c1ncn2CCOCP(=O)(Oc1ccccc1)N1CCC[C@H]1C(=O)OCC` (some centres unmarked) [Example 57], the GI50 in the test on A549 amounted to 2420 nM; with Du-145 it was 372 nM; in the test on PC3 it was 696 nM; with HCT-15, 5200 nM; in the test with BT-549, 1120 nM; with HCT-116, 1610 nM. Also, the results for the GI50 in the test on NCI-H23 and in the test with Hs-578 were 241 nM and 1110 nM, respectively.
`CCCCOC(=O)[C@H](C)NP(=O)(COCCn1cnc2c(OC3CC3)nc(N)nc21)Oc1ccccc1` (some centres unmarked) [Example 58]: the GI50 in the test on A549 is 204 nM; with Du-145 it was 1 nM; with PC3, 60 nM; in the test on HCT-15, 1030 nM; in the test with BT-549, 585 nM; in the test on HCT-116, 114 nM. Also, the GI50 with NCI-H23 amounted to 3 nM; in the test with Hs-578, 42 nM.
On to `CCCOc1nc(N)nc2c1ncn2CCOCP(=O)(OCOC(=O)OC(C)C)OCOC(=O)OC(C)C` [Example 59], for which the GI50 is 168 nM in the test on A549; 2 nM in the test on Du-145; 40 nM with PC3; 534 nM with HCT-15; 45 nM in the test on BT-549; 118 nM with HCT-116. Further, the GI50 came out at 10 nM in the test on NCI-H23 and 61 nM with Hs-578.
`COc1nc(N)nc2c1ncn2CCOCP(=O)(OCOC(=O)OC(C)C)OCOC(=O)OC(C)C` [Example 60]: the GI50 turned out to be 91 nM with A549; 2 nM with Du-145; 52 nM in the test with PC3; 766 nM with HCT-15; 42 nM in the test with BT-549; 79 nM in the test on HCT-116. Also, the GI50 with NCI-H23 was 5 nM; with Hs-578 it was 22 nM.
Turning to `CCCOc1nc(N)nc2c1ncn2CCOCP(=O)(Oc1ccc(Cl)cc1)N1CCC[C@H]1C(=O)OCC` (some centres unmarked) [Example 62], the GI50 was determined as 1870 nM in the test on A549; 1 nM in the test on Du-145; 44 nM with PC3; 10000 nM in the test on HCT-15; 4440 nM with BT-549; 2790 nM with HCT-116. Moreover, the results for the GI50 in the test with NCI-H23 and with Hs-578 were 49 nM and 1070 nM, respectively.
Regarding `CCCOc1nc(N)nc2c1ncn2CCOCP(=O)(Oc1ccc(C#N)cc1)N1CCC[C@H]1C(=O)OCC` (some centres unmarked) [Example 63], the 50% growth inhibitory concentration (GI50) in the test with A549 was determined as 14 nM; with Du-145, 1 nM; with PC3, 2 nM; with HCT-15 it was 3350 nM; with BT-549, 282 nM; in the test on HCT-116 it was 184 nM. The GI50 was found to be 1 nM in the test with NCI-H23 and 7 nM with Hs-578.
